{
  "source": "patent US4277496A",
  "about": "“Methods of treating mammals suffering from inflammation and pain” (Laboratorios Bago S.A., priority 1980, dated 1981)",
  "key": {"gastric epithelium": {"tested_on": "gastric epithelium", "test": "Influence on the gastro-intestinal tract (ulceration, pylorus-ligated, method of Shay et al.)", "assay_type": "in vivo, rat (male Sprague Dawley)", "details": "oral, dose mg/kg: phenylbutazone 75, ASA 100, XAA 120, XAA ester 196, TAA 60, TAA ester 84.5; for Increase (of ulceration evaluation): increase over control (distilled water, 3.0), 1 hour; for Evaluation (ulceration of the gastric epithelium): 1 hour after administration, score 0=no hemorrhage sites to 6=perforated ulcer, control 3.0", "experimental": "Influence on the gastro-intestinal tract\nTen male rats of Sprague Dawley strain, weighing 200-300 g were used for each compound tested. According to the method of Shay et al. (Shay, H., Komapov, S. A., Feb. S. S., Meranir, D., Gruenstein, M., Siplet, H. Gastroenterology 5, 43, 1945), under anesthesia, the pylorus was ligated and 4 hours later test compounds were orally administered. The animal was sacrificed 1 hour after compound administration. The stomach was removed and examined for macroscopic damage. The ulceration of the gastric epithelium was evaluated by the following evaluation: 0=no hemorrhage sites; 1=some isolated hemorrhagic sites; 2=redness of the gastric epithelium; 3=1 to 5 small ulcers with a diameter smaller than 3 mm; 4=many small ulcers; 5=ulcers-greater than 3 mm; 6=perforated ulcer."}, "[1]": {"tested_on": "Carrageenin induced edema", "test": "Anti-inflammatory Activity (Carrageenin induced edema test)", "assay_type": "in vivo, rat (male Sprague Dawley)", "details": "for % Edema Inhibition, 1 hour / % Edema Inhibition, 3 hours / % Edema Inhibition, 5 hours: oral, 30 min before carrageenin, dose mg/kg: ASA 100, XAA 120, XAA ester 196 (eq. 120 XAA), TAA 60, TAA ester 84.5 (eq. 60 TAA); for % Edema Inhibition, 1 hour: 1 hour after carrageenin; for % Edema Inhibition, 3 hours: 3 hours after carrageenin; for % Edema Inhibition, 5 hours: 5 hours after carrageenin; for anti-inflammatory versus antinociceptive action: conclusion in words from Examples 6 and 7", "experimental": "Anti-inflammatory Activity (Carrageenin induced edema test)\nFifteen to twenty male rats of Sprague Dawley strain weighing 150-200 g, were employed for each compound tested. 0.1 ml of 1% carrageenin saline suspension was injected into the subplantar region of the right hind-paw. The test compounds were orally administered 30 minutes prior to the injection of carrageenin and the foot volume was determined 1,3 and 5 hours after the injection of carrageenin. The percent swelling in the foot was obtained by comparing the volume before and after the injection of carrageenin, and the rate of inhibition in the treated animals was calculated."}, "[2]": {"tested_on": "pain threshold for the inflamed feet (carrageenin)", "test": "Analgesic Activity: Randall-Selitto's method", "assay_type": "in vivo, mouse (male Rockland)", "details": "oral, 30 min before carrageenin; hourly for 3 hours; relative potency (control 0); dose mg/kg: ASA 100, XAA 50, XAA ester 74 (eq. 50 XAA), TAA 50, TAA ester 82 (eq. 50 TAA)", "experimental": "Randall-Selitto's method: Ten male mice of Rockland strain weighing 25 g were used for each compound tested. 0.1 ml of 1% carrageenin saline suspension was injected into the subplantar region of the right foot. The test compounds were orally administered 30 minutes before the injection. At hourly intervals for 3 hours after the carrageenin injection, the pain threshold for the inflammed feet determining was measured the amount of pressure with an analgesy meter."}, "[3]": {"tested_on": "response threshold on applying pressure to the tail", "test": "Analgesic Activity: Tail pressure test", "assay_type": "in vivo, mouse (male Rockland)", "details": "oral; 15 and 60 min after administration; relative potency (control 0, ASA 1.00); dose mg/kg: ASA 100, XAA 50, XAA ester 74 (eq. 50 XAA), TAA 50, TAA ester 82 (eq. 50 TAA)", "experimental": "Tail pressure test: Ten male mice of Rockland strain weighing 20-25 g were used for each compound tested. The response threshold on applying pressure to the tail was determined with an analgesy meter at 15 and 60 minutes after oral administration of the test compound. The pressure at which a struggle was elicited was read."}},
  "data": [
    {"molecule": "CC(=O)Oc1ccccc1C(=O)O", "note": "[Acetylsalicylic acid (ASA), Acetylsalicylic acid]", "values": [
      {"measurement": "Increase (of ulceration evaluation)", "setting": "gastric epithelium", "value": 1.1},
      {"measurement": "Evaluation (ulceration of the gastric epithelium)", "setting": "gastric epithelium", "value": 4.1},
      {"measurement": "% Edema Inhibition, 1 hour", "setting": "[1]", "value": 3.8, "unit": "%"},
      {"measurement": "% Edema Inhibition, 3 hours", "setting": "[1]", "value": 24.8, "unit": "%"},
      {"measurement": "% Edema Inhibition, 5 hours", "setting": "[1]", "value": 25.3, "unit": "%"},
      {"measurement": "Relative strength, Randall-Selitto test", "setting": "[2]", "value": 1.05},
      {"measurement": "Relative strength, Tail pressure test", "setting": "[3]", "value": 1.00}
    ]},
    {"molecule": "Cc1cccc(Nc2ccccc2C(=O)O)c1C", "note": "[N-(2',3'-xylyl) anthranylic acid (XAA), N-(2',3'-xylyl) anthranylic acid]", "values": [
      {"measurement": "Increase (of ulceration evaluation)", "setting": "gastric epithelium", "value": 1.2},
      {"measurement": "Evaluation (ulceration of the gastric epithelium)", "setting": "gastric epithelium", "value": 4.2},
      {"measurement": "% Edema Inhibition, 1 hour", "setting": "[1]", "value": 19.32, "unit": "%"},
      {"measurement": "% Edema Inhibition, 3 hours", "setting": "[1]", "value": 24.7, "unit": "%"},
      {"measurement": "% Edema Inhibition, 5 hours", "setting": "[1]", "value": 23.4, "unit": "%"},
      {"measurement": "Relative strength, Randall-Selitto test", "setting": "[2]", "value": 1.04},
      {"measurement": "Relative strength, Tail pressure test", "setting": "[3]", "value": 0.2}
    ]},
    {"molecule": "O=C(O)c1ccccc1Nc1cccc(C(F)(F)F)c1", "note": "[N-(3'-trifluorotolyl)-anthranylic acid]", "values": [
      {"measurement": "Increase (of ulceration evaluation)", "setting": "gastric epithelium", "value": 1.9},
      {"measurement": "Evaluation (ulceration of the gastric epithelium)", "setting": "gastric epithelium", "value": 4.9},
      {"measurement": "% Edema Inhibition, 1 hour", "setting": "[1]", "value": 24.3, "unit": "%"},
      {"measurement": "% Edema Inhibition, 3 hours", "setting": "[1]", "value": 29.3, "unit": "%"},
      {"measurement": "% Edema Inhibition, 5 hours", "setting": "[1]", "value": 28.3, "unit": "%"},
      {"measurement": "Relative strength, Randall-Selitto test", "setting": "[2]", "value": 5.3},
      {"measurement": "Relative strength, Tail pressure test", "setting": "[3]", "value": 0.5}
    ]},
    {"molecule": "CCCCC1C(=O)N(c2ccccc2)N(c2ccccc2)C1=O", "note": "[Phenylbutazone]", "values": [
      {"measurement": "Increase (of ulceration evaluation)", "setting": "gastric epithelium", "value": 2.5},
      {"measurement": "Evaluation (ulceration of the gastric epithelium)", "setting": "gastric epithelium", "value": 5.5}
    ]},
    {"molecule": "CC(C)(C)C(=O)OCOC(=O)c1ccccc1Nc1cccc(C(F)(F)F)c1", "note": "[Pivaloyloxymethyl N(3'-trifluorotolyl)-anthranylate]", "values": [
      {"measurement": "Increase (of ulceration evaluation)", "setting": "gastric epithelium", "value": 0.6},
      {"measurement": "Evaluation (ulceration of the gastric epithelium)", "setting": "gastric epithelium", "value": 3.6},
      {"measurement": "anti-inflammatory versus antinociceptive action", "setting": "[1]", "value": "act as anti-inflammatory agents more than as antinociceptive agents"},
      {"measurement": "% Edema Inhibition, 1 hour", "setting": "[1]", "value": 40.4, "unit": "%"},
      {"measurement": "% Edema Inhibition, 3 hours", "setting": "[1]", "value": 40.7, "unit": "%"},
      {"measurement": "% Edema Inhibition, 5 hours", "setting": "[1]", "value": 32.4, "unit": "%"},
      {"measurement": "Relative strength, Randall-Selitto test", "setting": "[2]", "value": 8.7},
      {"measurement": "Relative strength, Tail pressure test", "setting": "[3]", "value": 1.02}
    ]},
    {"molecule": "Cc1cccc(Nc2ccccc2C(=O)OCOC(=O)C(C)(C)C)c1C", "note": "[Pivaloyloxymethyl N-(2',3'-xylyl)anthranylate]", "values": [
      {"measurement": "Increase (of ulceration evaluation)", "setting": "gastric epithelium", "value": 0.4},
      {"measurement": "Evaluation (ulceration of the gastric epithelium)", "setting": "gastric epithelium", "value": 3.4},
      {"measurement": "anti-inflammatory versus antinociceptive action", "setting": "[1]", "value": "act as anti-inflammatory agents more than as antinociceptive agents"},
      {"measurement": "% Edema Inhibition, 1 hour", "setting": "[1]", "value": 33.3, "unit": "%"},
      {"measurement": "% Edema Inhibition, 3 hours", "setting": "[1]", "value": 36.4, "unit": "%"},
      {"measurement": "% Edema Inhibition, 5 hours", "setting": "[1]", "value": 31.3, "unit": "%"},
      {"measurement": "Relative strength, Randall-Selitto test", "setting": "[2]", "value": 1.74},
      {"measurement": "Relative strength, Tail pressure test", "setting": "[3]", "value": 0.48}
    ]}
  ]
}
